The test system of the experiment is Fab C2. As to the kind of experiment: SPR epitope mapping: binding of epitope I peptide variants to immobilized Fab C2. On the set-up: species or system mouse; Ka, binding to Fab C2: unit not given here. The note with it: for Ka, binding to Fab C2 / Kd, binding to Fab C2: Fab C2 immobilized on CM5 chip, 25°C; for pKd: read-out: KD, binding to Fab C2, Fab C2 immobilized on CM5 chip, peptides 125 nM to 5 μM, HBS buffer, 25°C, NB = no binding. The procedure: All SPR analyses were performed on a Biacore 3000 instrument from GE Healthcare, using CM5 sensor chips and the HBS buffer certified for use with this instrument (20 mM HEPES, 0.15 M NaCl, pH 7.2, 0.005% polysorbate 20), at 25°C. Immobilization was carried out by means of the canonical amine-coupling chemistry using the surface immobilization wizard procedure operating at 5 μl/min. Channels were activated with a mixture of 1-ethyl-3-(3-dimethylaminopropyl)-carbodiimide and N-hydroxysuccinimide for 7 min; then, the ligand, which had been appropriately diluted in the preselected sodium acetate buffer, was coupled until a typical level of 500 to 600 response units (RU) was achieved. The remaining active ester groups were blocked with 1 M ethanolamine HCl, pH 8.5. […] The same procedure was applied to prepare an sE2-functionalized sensor chip. An IgG1 isotype-matched antibody was used as a negative control at a concentration of 5.0 μM. […] An underivatized surface was prepared on every sensor chip and used as a blank control. All analyses were carried out at a flow rate of 20 μl/min, and a constant volume of 60 μl of protein or peptide solution appropriately diluted in the HBS running buffer was injected.
For every analysis, experimental sensorgrams were aligned, the blank signal was subtracted, and the sensorgrams were overlapped. All mathematical manipulations and fitting of the data were performed using BIAevaluation (version 4.1) software (GE Healthcare).
To further investigate which peptide residues were mostly involved in the binding with the antibodies, we designed and prepared a panel of alanine-mutated cyclic peptides (Table 4). […] All peptides were tested at concentrations ranging from 125 nM to 5 μM.

pKd: −log10 of the molar value. Bridge positions count the residues as written; N and C are the ends. Peptide text beside a SMILES is read from it. A value given as a limit tells only on which side of the number the result lay.

On to `CC[C@H](C)[C@H](NC(=O)[C@H](Cc1c[nH]cn1)NC(=O)[C@H](Cc1c[nH]c2ccccc12)NC(=O)[C@H](CO)NC(=O)CNC(=O)[C@H](CC(N)=O)NC(=O)[C@@H](NC(=O)[C@H](CC(N)=O)NC(=O)[C@@H](NC(=O)[C@H](CC(C)C)NC(=O)[C@H](CCC(N)=O)NC(=O)[C@H](CSC)NC(=O)[C@H](CCCCN)NC(=O)[C@H](CCCCN)NC(C)=O)[C@@H](C)CC)[C@@H](C)O)C(=O)N[C@@H](CSC)C(N)=O` [L-epitope I] (Ac-KKC(Me)QLINTNGSWHIC(Me)-NH2; N-terminus and C-terminus assumed), for which the pKd is under 5.30. Also, where the note is “peptides 125 nM to 5 μM”, the “Ka, binding to Fab C2” value amounted to 0 and the “Kd, binding to Fab C2” value is 0 M⁻¹ s⁻¹.

For the compound `CC[C@H](C)[C@@H]1NC(=O)[C@H](CC(C)C)NC(=O)[C@H](CCC(N)=O)NC(=O)[C@@H](NC(=O)[C@H](CCCCN)NC(=O)[C@H](CCCCN)NC(C)=O)CSSC[C@@H](C(N)=O)NC(=O)[C@H]([C@@H](C)CC)NC(=O)[C@H](Cc2c[nH]cn2)NC(=O)[C@H](Cc2c[nH]c3ccccc23)NC(=O)[C@H](CO)NC(=O)CNC(=O)[C@H](C)NC(=O)[C@H](C)NC(=O)[C@H](C)NC1=O` [C-epitope I mutant II] (Ac-KKCQLIAAAGSWHIC-NH2; disulfide 3-15; N-terminus and C-terminus assumed), where the note is “peptides 125 nM to 5 μM”, the “Ka, binding to Fab C2” value was determined as 3200 s⁻¹ and the “Kd, binding to Fab C2” value is 4.73e-05 M⁻¹ s⁻¹.

Turning to `CC[C@H](C)[C@@H]1NC(=O)[C@H](Cc2c[nH]cn2)NC(=O)[C@H](Cc2c[nH]c3ccccc23)NC(=O)[C@H](CO)NC(=O)CNC(=O)[C@H](CC(N)=O)NC(=O)[C@H]([C@@H](C)O)NC(=O)[C@H](CC(N)=O)NC(=O)[C@H](C)NC(=O)[C@H](C)NC(=O)[C@H](C)NC(=O)[C@@H](NC(=O)[C@H](CCCCN)NC(=O)[C@H](CCCCN)NC(C)=O)CSSC[C@@H](C(N)=O)NC1=O` [C-epitope I mutant I] (Ac-KKCAAANTNGSWHIC-NH2; disulfide 3-15; N-terminus and C-terminus assumed), where the note is “peptides 125 nM to 5 μM”, the “Ka, binding to Fab C2” value came out at 1.22e+06 s⁻¹ and the “Kd, binding to Fab C2” value is 0.553 M⁻¹ s⁻¹.

Consider `CC[C@H](C)[C@@H]1NC(=O)[C@H](CC(C)C)NC(=O)[C@H](CCC(N)=O)NC(=O)[C@@H](NC(=O)[C@H](CCCCN)NC(=O)[C@H](CCCCN)NC(C)=O)CSSC[C@@H](C(N)=O)NC(=O)[C@H](C)NC(=O)[C@H](C)NC(=O)[C@H](C)NC(=O)[C@H](CO)NC(=O)CNC(=O)[C@H](CC(N)=O)NC(=O)[C@H]([C@@H](C)O)NC(=O)[C@H](CC(N)=O)NC1=O` [C-epitope I mutant IV] (Ac-KKCQLINTNGSAAAC-NH2; disulfide 3-15; N-terminus and C-terminus assumed), for which the pKd is under 5.30. Also, for the setting “peptides 125 nM to 5 μM”, the “Ka, binding to Fab C2” value stood at 0 and the “Kd, binding to Fab C2” value was determined as 0 M⁻¹ s⁻¹. Also, the “affinity/binding to Fab C2 relative to wild type” value (Fab C2 immobilized, peptides 125 nM to 5 μM) was “abolished”.

Consider `CC[C@H](C)[C@@H]1NC(=O)[C@H](Cc2c[nH]cn2)NC(=O)[C@H](Cc2c[nH]c3ccccc23)NC(=O)[C@H](CCC(=O)O)NC(=O)[C@H](CCC(=O)O)NC(=O)[C@H](CC(N)=O)NC(=O)[C@H]([C@@H](C)O)NC(=O)[C@H](CC(N)=O)NC(=O)[C@H]([C@@H](C)CC)NC(=O)[C@H](CC(C)C)NC(=O)[C@H](CCC(N)=O)NC(=O)[C@@H](NC(=O)[C@H](CCCCN)NC(=O)[C@H](CCCCN)NC(C)=O)CSSC[C@@H](C(N)=O)NC1=O` [C-epitope I mutant III] (Ac-KKCQLINTNEEWHIC-NH2; disulfide 3-15; N-terminus and C-terminus assumed), for which, where the note is “peptides 125 nM to 5 μM”, the “Ka, binding to Fab C2” value came out at 16200 s⁻¹ and the “Kd, binding to Fab C2” value was 0.0754 M⁻¹ s⁻¹.

In general, pKd refers to −log10 of the Kd, conventionally taken in molar units.
